Measurements from patent US8598182B2, “Insecticidal pyrimidinyl aryl hyrdrazones” (Dow AgroSciences, LLC., priority 2007, dated 2013).

Tests used:
[1] = tested on: Corn Earworm (Helicoverpa zea); assay: Insecticidal diet-surface test for corn earworm; assay type: in vivo; conditions: second-instar corn earworm, 50 ug/cm2 on diet surface, 5 days after treatment, dead insects of 8
Experimental: (§1) The compounds identified in Table 1 were prepared using the procedures illustrated in the foregoing examples, and the compounds were tested against beet armyworm and corn earworm as follows:
(§2) Insecticidal Test for Corn Earworm (Helicoverpa zea) and Beet Armyworm (Spodoptera exigua).
(§3) To prepare test solution, the test compound was formulated at 2000 ppm solution as 4 mg/2 mL of 9 acetone:1 tap water. 50 μL of the 2000 ppm (equivalent to 50 ug/cm^2 dose on diet surface area) test solution was pipetted upon the surface of 1 mL of lepidopteran diet (Southland Multi-Species Lepidopteran Diet) contained in each of eight wells per insect species (one well=1 replication). A second-instar corn earworm and beet armyworm was placed upon the treated diet in each well once the solvent had air-dried. Trays containing the treated diet and larvae were covered and then held in a growth chamber at 25° C., 50-55% RH, and 16 hr light:8 hr dark for 5 days. Observation were conducted 5 days after treatment and infestation. The number of dead insects of 8 per species per treatment was then determined and the results are given in Table 1 as percent control at a dose of […].
(§4) Keys to the table: Mass spectral data were obtained using liquid chromatography mass spectroscopy (LC-MS). The masses are detected using electrospray ionization (ESI) and reported as Mol Ion (M+H, M−H); AVG LAPHEG 50 refers to activity against beet army worm (Spodoptera exigua) as defined above; AVG HELIZE 50 refers to activity against corn ear worm (Helicoverpa zea) as described above.

[2] = tested on: Beet Armyworm (Spodoptera exigua); assay: Insecticidal diet-surface test for beet armyworm; assay type: in vivo; conditions: second-instar beet armyworm, 50 ug/cm2 on diet surface, 5 days after treatment, dead insects of 8
Experimental: as §1, §2, §3, §4

| Structure (SMILES) | HELIZE 50 (ug/cm2), percent control [1] [%] | LAPHEG 50 (ug/cm2), percent control [2] [%] |
| --- | --- | --- |
| Fc1ccc(Nc2cc(Cl)nc(N/N=C/c3ccc(Br)nc3)n2)cc1C(F)(F)F [Compound 66] | 75 | 100 |
| CCNCCNc1cc(Nc2ccc(F)c(C(F)(F)F)c2)nc(N/N=C/c2ccc(OC(F)(F)F)cc2)n1 [Compound 65] | 100 | 100 |
| FC(F)(F)c1ccc(/C=N/Nc2nc(Cl)cc(Nc3cccc(Cl)c3)n2)cc1 [Compound 31] | 100 | 100 |
| FC(F)C(F)(F)Oc1ccc(/C=N/Nc2cc(Nc3cc(Cl)cc(C(F)(F)F)c3)nc(Cl)n2)cc1 [Compound 84] | 100 | 100 |
| FC(F)C(F)(F)Oc1ccc(Nc2cc(Cl)nc(N/N=C/c3cccc(OC(F)(F)C(F)F)c3)n2)cc1 [Compound 7] | 25 | 88 |
